{
  "source": "patent US11813264B2",
  "about": "“PAR1 modulation to alter myelination” (Mayo Foundation for Medical Education and Research, priority 2014, dated 2023)",
  "format_in_all_cases": "cell-based, mouse",
  "key": {"Oli-neu oligodendrocytes": {"tested_on": "Oli-neu oligodendrocytes", "test": "Process retraction in Oli-neu oligodendrocytes (Phalloidin+ processes per cell)", "conditions": "24 hours, PAR1-AP 100 μM, Klk1 300 nM", "procedure": "Oli-neu oligodendrocytes are derived from mouse primary oligodendrocyte cultures retrovirally transduced to constitutively express the t-neu oncogene (Jung et al., Eur J Neurosci 7:1245-1265, 1995). All morphology, signaling, and myelin gene expression studies using Oli-neu oligodendrocytes were performed in media containing DMEM, 1% N2, 2 mM Glutamax, 1 mM sodium pyruvate, 20 mM HEPES buffer, and 50 μM β-mercaptoethanol (Sigma Aldrich. To evaluate PAR and Klk6 gene expression in Oli-neu (Table 2), cells were differentiated by treatment with 1 mM N^6, 2′-O-dibutyryladenosine 3′, 5′-cyclic monophosphate disodium salt (dbcAMP) for 72 hours prior to harvesting for RNA isolation. All cells were maintained at 37° C. in 95% air and 5% CO2. Cell culture reagents were obtained from Life Technologies (Carlsbad, CA) unless otherwise indicated. All cell culture experiments were performed in triplicate and repeated at least twice.\n(§1) PAR agonist-induced changes in oligodendrocyte morphology: To determine the effects of recombinant Klk6, Klk1, thrombin, or PAR1-AP on oligodendroglia, 3 DIV PAR1^+/+, PAR1^−/−, and PAR2^−/− oligodendrocytes, PAR1^+/+ OPCs immediately post purification, or Oli-neu cells were grown on cover slips in the presence of agonists for 24 h. For ATP toxicity assays, oligodendrocytes were incubated with ATP (50 μM, Sigma Aldrich) in the presence of Klk6 or Klk1. Following each treatment, oligodendrocyte and OPC cultures were immunolabeled for O4 to visualize the cell body and processes. Oli-neu processes were visualized by staining the actin cytoskeleton with Cy3-conjugated Phalloidin.\n(§2) To assess the effects of Klk6 and other PAR1 agonists on oligodendrocyte morphology and process stability, 20× digital micrographs were overlaid with a 780 μm^2 grid and ImageJ software 1.45r (National Institutes of Health) used to record cell number and the number of processes crossing horizontal grid lines (Scarisbrick et al., Brain 125:1283-1296, 2002). Data are expressed as the mean number of O4^+ or Phalloidin^+ processes per DAPI^+ cell (±SEM)."}, "Erk1/2 phosphorylation": {"tested_on": "Erk1/2 phosphorylation", "test": "Klk6-PAR signaling assay, Erk1/2 phosphorylation by Western blot in Oli-neu", "conditions": "treatment alone; Klk6 10 minutes", "procedure": "Klk6-PAR signaling assays: To examine the ability of Klk6 to mediate PAR-dependent signaling in oligodendrocytes, Oli-neu oligodendroglia (3.5×10^5 cells/well in six-well plates) were treated with Klk6 (150 nM) for 10 min, followed by protein harvest. Cell lysates were analyzed for phosphorylated or nonphosphorylated Erk1/2 by Western blot. In experiments to determine the role of PARs in Klk6 signaling, Oli-neu were preincubated with the PAR1 antagonist, SCH79797 dihydrochloride (50 nM, Tocris Biosciences, Minneapolis, MN) for 30 minutes prior to Klk6 application.\nWestern blot: Oli-neu lysates were obtained using a buffer containing 1% NP40, 0.5% deoxycholate, 10% glycerol, and 20 mM Tris base and separated on SDS-polyacrylamide gels prior to transfer. Membranes were blocked with 5% milk in TBS-T and incubated overnight with primary antibodies including rabbit anti-phospho-Erk1/2 (1:1,000, Cell Signaling Technology, Danvers, MA), followed with a species-appropriate horseradish peroxidase-conjugated secondary antibody (1:20,000 GE Healthcare Unlimited, UK). Signal was detected using Chemiluminescence Supersignal Pico (Pierce, Rockford, IL). Western blots were repeated three times from independent cultures, scanned, and quantified by densitometry (BioRad Quantity One 1-D Analysis Software, BioRad, Hercules, CA). Erk1/2 signal was normalized to its nonphosphorylated form. Equal loading was verified by reprobing blots for […] (Novus Biologicals, Littleton, CO)."}, "[1]": {"tested_on": "primary oligodendrocyte cultures (3 DIV)", "test": "ATP toxicity assay in oligodendrocytes", "procedure": "as §1, §2\nThe extent of oligodendrocyte morphological differentiation was determined by scoring O4^+/DAPI^+ oligodendrocyte morphology as simple (only primary processes, no secondary branching), incomplete (one or more primary process without secondary branching), complete (all primary processes with secondary branching), or membrane (complete secondary branching with membrane sheets) (Huang et al., Nat Neurosci 14:45-53, 2011). The mean number of cells in each morphology class was determined across treatments and expressed as percent of total O4^+/DAPI^+ cells.\n(§3) Changes in OPC or oligodendrocyte morphology were quantified from five microscopic fields per cover slip with the mean and SEM calculated across three cover slips per experiment. Each experiment was repeated at least twice using independent cultures. Analysis of oligodendrocyte morphology was performed without knowledge of treatment groups."}, "[2]": {"tested_on": "oligodendrocyte progenitor cells (OPCs)", "test": "OPC process outgrowth", "conditions": "24 h", "procedure": "(§4) Oligodendrocyte Cultures: Purified cortical oligodendrocyte progenitor cells (OPCs) and differentiated oligodendrocytes were isolated from mixed glial cultures derived from postnatal day 1 mice (McCarthy and de Vellis, J Cell Blot 85:890-902, 1980). Glial cultures were grown in media containing DMEM, 2 mM Glutamax, 1 mM sodium pyruvate, 20 mM HEPES, and 10% heat-inactivated fetal calf serum (Atlanta Biologicals, Lawrenceville, GA). OPCs were isolated from 10 days-in-vitro (DIV) mixed glial cultures by overnight shaking and purified by differential adhesion. OPCs were seeded in defined Neurobasal A media containing 1% N2, 50 U/mL penicillin/streptomycin, 2 mM Glutamax, 1 mM sodium pyruvate, 0.45% glucose, and 50 μM β-mercaptoethanol (Sigma Aldrich, USA). OPCs were seeded at 3×10^4/cm^2 onto tissue culture plastic or 12 mm glass cover slips coated with poly-L-lysine (PLL, 10 μg/mL). After 24 h, cultures were 92-98% immunoreactive (IR) for sulfatide (O4) and by 72 hours at least 80% were also MBP-IR.\nas §1, §2, §3"}, "primary oligodendrocytes": {"tested_on": "primary oligodendrocytes", "test": "Klk6-induced process retraction in primary oligodendrocytes (O4+ processes per cell)", "procedure": "as §4, §1, §2, §3"}, "[3]": {"conditions": "co-application with ATP 50 μM, Klk6 150 nM"}},
  "data": [
    {"substance": "Klk6: Recombinant murine kallikrein-related peptidase 6 expressed using a baculovirus system", "values": [
      {"measurement": "Oli-neu cell number", "setting": "Oli-neu oligodendrocytes; Klk6 30 nM", "result": "small but significant increase"},
      {"measurement": "number of processes per cell", "setting": "Oli-neu oligodendrocytes; Klk6 30, 150, 300 nM, thrombin 270 nM", "result": "significant and dose-dependent"},
      {"measurement": "Erk1/2 phosphorylation", "setting": "Erk1/2 phosphorylation", "result": "nearly four-fold increase"},
      {"measurement": "ATP-induced oligodendrocyte loss", "setting": "[1]; co-application with ATP", "result": "significant exacerbation"},
      {"measurement": "number of processes per oligodendrocyte", "setting": "[1]; co-application with ATP 50 μM", "result": "five-fold reduction"},
      {"measurement": "oligodendrocytes with membrane morphology", "setting": "[1]; co-application with ATP 50 μM", "result": "complete loss"},
      {"measurement": "oligodendroglia with mature complete morphology", "setting": "[1]; co-application with ATP 50 μM", "result": "complete loss"},
      {"measurement": "increase in oligodendrocytes with incomplete morphologies compared with vehicle or ATP alone", "setting": "[1]; [3]", "result": "greater than 40%"},
      {"measurement": "percentage of oligodendrocytes with simple morphology relative to ATP alone", "setting": "[1]; [3]", "result": "further increasing"},
      {"measurement": "fewer processes per cell compared with controls", "setting": "[2]; 150 nM", "result": "~60", "unit": "%"},
      {"measurement": "number of OPCs", "setting": "[2]", "result": "significantly reduced"},
      {"measurement": "OPC process extension / outgrowth", "setting": "[2]; Klk6 150 nM, thrombin 135 nM, Klk1 150 nM", "result": "significantly fewer processes than thrombin treated cultures"},
      {"measurement": "oligodendrocyte process retraction compared with controls", "setting": "primary oligodendrocytes; PAR1+/+ oligodendrocytes 3 DIV, 30 or 300 nM, 24 h", "result": "significant and statistically equivalent oligodendrocyte process retraction"},
      {"measurement": "number of O4+ cells", "setting": "primary oligodendrocytes; PAR1+/+, PAR1-/- or PAR2-/- cells", "result": "No significant differences"},
      {"measurement": "oligodendrocyte process retraction", "setting": "primary oligodendrocytes; PAR1-/- oligodendrocytes, 30 or 300 nM", "result": "did not exhibit statistically significant process retraction"},
      {"measurement": "oligodendrocyte process retraction", "setting": "primary oligodendrocytes; PAR2-/- oligodendrocytes, 30 or 300 nM", "result": "process retraction comparable to that seen in PAR1^+/+ cultures"}
    ]}
  ]
}
